Measurements published in patent US20200281202A1 (priority 2017, published 2020).

Key:
Plasmopara viticola = Plasmopara viticola test in grape, preventive; type: in vivo; details: 50 ppm spray, grape seedlings inoculated one day after treatment; for pest or weed control at 50 ppm: Plasmopara viticola, read-out: control (disease severity) compared to the untreated check
Experimental: Example B: Plasmopara viticola Test in Grape
Compounds were dissolved in 2% DMSO/Acetone & then mixed with water to calibrated spray volume of 50 ml. This 50 ml spray solution was poured into the spray bottles for further applications.
To test the preventive activity of compounds, five week old healthy grape seedlings raised in the greenhouse were sprayed with active compound preparation at the stated application rates inside the spray cabinets using hallow-cone nozzles. One day after treatment, the plants were inoculated with inoculum suspension (Cold sterile water) containing 6×10^6 Plasmopara viticola inoculum. The inoculated plants were then kept in greenhouse chamber at 18-21° C. temperature and 95-100% relative humidity for disease expression. Compounds
A visual assessment of compound's performance was carried by rating the disease severity (0-100% scale) on treated plants on 3, 7, 10 and 15 days after application. Efficacy (% control) of the compounds was calculated by comparing the disease rating in the treatment with untreated control. The sprayed plants were also assessed for compound's phytotoxic effects by recording symptoms like necrosis, chlorosis and stunting.

Phytophthora infestans [1] = experiment: microbe, parasite or virus in culture; type: cell-based; details: for inhibition of growth at 30 ppm: Phytophthora infestans, 168 h, read-out: control (radial growth) compared to the untreated check; for control (radial growth) compared to the untreated check: 30 ppm in Rye Agar medium, seven days at 18° C.
Phytophthora infestans [2] = experiment: whole plant or invertebrate; type: in vivo; details: for pest or weed control at 50 ppm: Phytophthora infestans, in Solanum lycopersicum, read-out: control (disease severity) compared to the untreated check; for control (disease severity) compared to the untreated check: 50 ppm spray, preventive, Tomato plants inoculated one day after treatment

Compound	pest or weed control at 50 ppm (Plasmopara viticola) [%]	inhibition of growth at 30 ppm (Phytophthora infestans [1]) [%]	pest or weed control at 50 ppm (Phytophthora infestans [2]) [%]	control (disease severity) compared to the untreated check (Plasmopara viticola) [%]	control (radial growth) compared to the untreated check (Phytophthora infestans [1]) [%]	control (disease severity) compared to the untreated check (Phytophthora infestans [2]) [%]
Cc1ccc(C(F)(F)F)c(OCC(=O)N2CCC(c3nc(C4=NOC(c5c(Cl)cccc5Cl)C4)cs3)CC2)n1 (stereo not drawn) [Compound 41, 1-(4-(4-(5-(2,6-dichlorophenyl)-4,5-dihydroisoxazol-3-yl)thiazol-2-yl)piperidin-1-yl)-2-((6-methyl-3-(trifluoromethyl)pyridin-2-yl)oxy)ethan-1-one]	90	70	90	–	–	–
O=C(COc1ncccc1C(F)(F)F)N1CCC(c2nc(C3=NOC(c4c(Cl)cccc4Cl)C3)cs2)CC1 (stereo not drawn) [Compound 27]	90	70	90	–	–	–
CS(=O)(=O)Oc1cccc(Cl)c1C1CC(c2csc(C3CCN(C(=O)COc4ncccc4C(F)(F)F)CC3)n2)=NO1 (stereo not drawn) [Compound 28, 3-chloro-2-(3-(2-(1-(2-((3-(trifluoromethyl)pyridin-2-yl)oxy)acetyl)piperidin-4-yl)thiazol-4-yl)-4,5-dihydroisoxazol-5-yl)phenyl methanesulfonate]	–	70	90	–	–	–
Cc1cccnc1OCC(=O)N1CCC(c2nc(C3=NOC(c4c(F)cccc4F)C3)cs2)CC1 (stereo not drawn) [Compound 77, 1-(4-(4-(5-(2,6-difluorophenyl)-4,5-dihydroisoxazol-3-yl)thiazol-2-yl)piperidin-1-yl)-2-((3-methylpyridin-2-yl)oxy)ethan-1-one]	90	70	90	–	–	–
O=C(COc1ncccc1C(F)(F)F)N1CCC(c2nc(C3=NOC(c4c(F)cccc4F)C3)cs2)CC1 (stereo not drawn) [Compound 29, 1-(4-(4-(5-(2,6-difluorophenyl)-4,5-dihydroisoxazol-3-yl)thiazol-2-yl)piperidin-1-yl)-2-((3-(trifluoromethyl)pyridin-2-yl)oxy) ethan-1-one]	90	70	90	–	–	–
Cc1ccc(C(F)(F)F)c(OCC(=O)N2CCC(c3nc(C4=NOC(c5c(Cl)cc(Cl)cc5Cl)C4)cs3)CC2)n1 (stereo not drawn) [Compound 39, 2-((6-methyl-3-(trifluoromethyl)pyridin-2-yl)oxy)-1-(4-(4-(5-(2,4,6-trichlorophenyl)-4,5-dihydroisoxazol-3-yl)thiazol-2-yl)piperidin-1-yl)ethan-1-one]	90	70	90	–	–	–
O=C(COc1ncc(Cl)cc1C(F)(F)F)N1CCC(c2nc(C3=NOC(c4c(Cl)cccc4Cl)C3)cs2)CC1 (stereo not drawn) [Compound 31, 2-((5-chloro-3-(trifluoromethyl)pyridin-2-yl)oxy)-1-(4-(4-(5-(2,6-dichlorophenyl)-4,5-dihydroisoxazol-3-yl)thiazol-2-yl)piperidin-1-yl)ethan-1-one]	90	70	90	–	–	–
CS(=O)(=O)Oc1cccc(Cl)c1C1CC(c2csc(C3CCN(C(=O)COc4ncc(C(F)(F)F)cc4Br)CC3)n2)=NO1 (stereo not drawn) [Compound 52]	90	70	90	–	–	–
O=C(COc1ncc(Br)cc1C(F)(F)F)N1CCC(c2nc(C3=NOC(c4c(Cl)cc(Cl)cc4Cl)C3)cs2)CC1 (stereo not drawn) [Compound 38]	–	–	–	90	70	90
Cn1nc(OCC(=O)N2CCC(c3nc(C4=NOC(c5c(Cl)cccc5Cl)C4)cs3)CC2)cc1C(F)(F)F (stereo not drawn) [Compound 15, 1-(4-(4-(5-(2,6-dichlorophenyl)-4,5-dihydroisoxazol-3-yl)thiazol-2-yl)piperidin-1-yl)-2-((1-methyl-5-(trifluoromethyl)-1H-pyrazol-3-yl)oxy)ethan-1-one]	90	70	90	–	–	–
O=C(COc1ncc(Br)cc1C(F)(F)F)N1CCC(c2nc(C3=NOC(c4c(Cl)cccc4Cl)C3)cs2)CC1 (stereo not drawn) [Compound 35, 2-((5-bromo-3-(trifluoromethyl)pyridin-2-yl)oxy)-1-(4-(4-(5-(2,6-dichlorophenyl)-4,5-dihydroisoxazol-3-yl)thiazol-2-yl)piperidin-1-yl)ethan-1-one]	90	70	90	–	–	–
COc1ccc(C2CC(c3csc(C4CCN(C(=O)COc5ncc(Cl)cc5C(F)(F)F)CC4)n3)=NO2)cc1 (stereo not drawn) [Compound 67]	–	–	–	–	70	90
Cc1ccc(C(F)(F)F)c(OCC(=O)N2CCC(c3nc(C4=NOC(c5c(F)cccc5F)C4)cs3)CC2)n1 (stereo not drawn) [Compound 40, 1-(4-(4-(5-(2,6-difluorophenyl)-4,5-dihydroisoxazol-3-yl)thiazol-2-yl)piperidin-1-yl)-2-((6-methyl-3-(trifluoromethyl)pyridin-2-yl)oxy)ethan-1-one]	–	70	90	–	–	–
O=C(COc1ncccc1C(F)F)N1CCC(c2nc(C3=NOC(c4c(Cl)cc(Cl)cc4Cl)C3)cs2)CC1 (stereo not drawn) [Compound 87]	90	70	90	–	–	–
CS(=O)(=O)Oc1cccc(Cl)c1C1CC(c2csc(C3CCN(C(=O)COc4ncc(Br)cc4C(F)(F)F)CC3)n2)=NO1 (stereo not drawn) [Compound 36]	90	70	90	–	–	–
O=C(COc1ncccc1C(F)(F)F)N1CCC(c2nc(C3=NOC(c4c(Cl)cc(Cl)cc4Cl)C3)cs2)CC1 (stereo not drawn) [Compound 30, 1-(4-(4-(5-(2,4,6-trichlorophenyl)-4,5-dihydroisoxazol-3-yl)thiazol-2-yl)piperidin-1-yl)-2-((3-(trifluoromethyl)pyridin-2-yl)oxy)ethan-1-one]	90	70	90	–	–	–
Cn1nc(C(F)(F)F)cc1OCC(=O)N1CCC(c2nc(C3=NOC(c4c(Cl)cc(Cl)cc4Cl)C3)cs2)CC1 (stereo not drawn) [Compound 10, 2-((1-methyl-3-(trifluoromethyl)-1H-pyrazol-5-yl)oxy)-1-(4-(4-(5-(2,4,6-trichlorophenyl)-4,5-dihydroisoxazol-3-yl)thiazol-2-yl)piperidin-1-yl)ethan-1-one]	90	70	90	–	–	–
O=C(CSc1ncccc1C(F)(F)F)N1CCC(c2nc(C3=NOC(c4c(F)cccc4F)C3)cs2)CC1 (stereo not drawn) [Compound 62, 1-(4-(4-(5-(2,6-difluorophenyl)-4,5-dihydroisoxazol-3-yl)thiazol-2-yl)piperidin-1-yl)-2-((3-(trifluoromethyl)pyridin-2-yl)thio)ethan-1-one]	90	70	90	–	–	–
Cc1ccc(C(F)(F)F)c(OCC(=O)N2CCC(c3nc(C4=NOC(c5c(Cl)cccc5OS(C)(=O)=O)C4)cs3)CC2)n1 (stereo not drawn) [Compound 42, 3-chloro-2-(3-(2-(1-(2-((6-methyl-3-(trifluoromethyl)pyridin-2-yl)oxy)acetyl)piperidin-4-yl)thiazol-4-yl)-4,5-dihydroisoxazol-5-yl)phenyl methanesulfonate]	90	70	90	–	–	–
CS(=O)(=O)Oc1cccc(Cl)c1C1CC(c2csc(C3CCN(C(=O)CSc4ncccc4C(F)(F)F)CC3)n2)=NO1 (stereo not drawn) [Compound 61, 3-chloro-2-(3-(2-(1-(2-((3-(trifluoromethyl)pyridin-2-yl)thio)acetyl)piperidin-4-yl)thiazol-4-yl)-4,5-dihydroisoxazol-5-yl)phenyl methanesulfonate]	90	70	90	–	–	–
O=C(COc1ncccc1C(F)F)N1CCC(c2nc(C3=NOC(c4c(F)cccc4F)C3)cs2)CC1 (stereo not drawn) [Compound 86, 2-((3-(difluoromethyl)pyridin-2-yl)oxy)-1-(4-(4-(5-(2,6-difluorophenyl)-4,5-dihydroisoxazol-3-yl)thiazol-2-yl)piperidin-1-yl)ethan-1-one]	90	70	90	–	–	–
O=C(CSc1ncc(C(F)(F)F)cc1Cl)N1CCC(c2nc(C3=NOC(c4c(F)cccc4F)C3)cs2)CC1 (stereo not drawn) [Compound 65, 2-((3-chloro-5-(trifluoromethyl)pyridin-2-yl)thio)-1-(4-(4-(5-(2,6-difluorophenyl)-4,5-dihydroisoxazol-3-yl)thiazol-2-yl)piperidin-1-yl)ethan-1-one]	–	70	–	–	–	–
Cn1nc(OCC(=O)N2CCC(c3nc(C4=NOC(c5c(Cl)cccc5OS(C)(=O)=O)C4)cs3)CC2)cc1C(F)(F)F (stereo not drawn) [Compound 19]	–	–	–	–	70	–
Cc1cccnc1OCC(=O)N1CCC(c2nc(C3=NOC(c4c(Cl)cccc4OS(C)(=O)=O)C3)cs2)CC1 (stereo not drawn) [Compound 78, 3-chloro-2-(3-(2-(1-(2-((3-methylpyridin-2-yl)oxy)acetyl)piperidin-4-yl)thiazol-4-yl)-4,5-dihydroisoxazol-5-yl)phenyl methanesulfonate]	–	70	–	–	–	–
